Experiment [1] concerns CDX2+ hTSCs from CTBs from term placentas. The experiment is described as follows: Derivation and support of CDX2+ hTSCs from term placental CTBs. It counts as cell-based, human. The conditions noted are these: component added to or exchanged in TSCM. How it is done:
Differentiation of term CTBs to hTSCs. Term CTBs that were previously frozen were thawed directly into DTM7 medium, or TSCMUA medium (see, e.g., Table 1). To assess DTME medium, cells cultured in TSCMUA were passaged into DTME.
Culture of hTSCs. hTSCs were cultured in 2 ml of DTM7 at 37 C in 5% CO2. Culture medium was replaced every 2 days. When hTSCs reached 70-90% confluence, they were dissociated with TrypLE at 37° C. for 5-10 minutes and passaged to a new 6-well plate pre-coated with 3 μg/ml of vitronectin and 1 μg/ml of Laminin 521 at a 1:3-1:4 split ratio and were supplemented with Y-27632 upon passage to aid in single cell attachment. Cells were routinely passaged approximately every 4-6 days. hTSCs at passages 2+ (typically passage 5+) were used for analysis.
hTSC cell culture. hTSCs were cultured as previously described by Okae et al. with minor modifications. Additionally, similar protocols were used for the TSCMUA, DMT7, and DTME media described further herein. […]

The subject of experiment [2] is CTB21126R+ term hTSCs. As to the kind of experiment: Immunofluorescence marker expression in term CTB-derived hTSCs. It counts as cell-based, human. The conditions noted are these: term hTSCs switched from TSCM+UK5099+AlbuMAX to TSCM. The method, then:
Immunofluorescence analysis. For immunofluorescence analysis, cells were grown on glass-bottom culture dishes coated with 3 μg/ml vitronectin and 1 μg/ml of Laminin 521. Cells were fixed either using 4% paraformaldehyde in PBS for 10 min, permeabilized with 0.5% Triton X-100 for 5 min and blocked in 3% BSA/PBS with 0.1% human IgG and 0.3% Triton X-100 for 1 hr. Cells were then incubated overnight with the primary antibody diluted in blocking buffer. The following primary antibodies were used: anti-KRT7 (SCB, 1:50), anti-KRT7 (CST, 1:500), rabbit anti-hCG (1:100), mouse anti-hCG (1:100), anti-YAP (1:200), anti-TFAP2C (1:400), anti-P63 (1:600), anti-GATA3 (1:500), anti-TEAD4 (1:250), anti-CDX2 (1:300), anti-VE-Cadherin (1:400), anti-HLA-G (1:300), anti-syncytin (1:50). Corresponding isotype controls (rabbit polyclonal IgG, rabbit XP IgG, mouse IgG1, and mouse IgG2a) were used at primary antibody concentrations. Alexa Fluor 488- or Alexa Fluor 647-conjugated secondary antibodies were used as secondary antibodies. Nuclei were stained with DAPI and all samples were imaged using a Zeiss LSM 710 or 880 laser scanning confocal microscope (Carl Zeiss, Germany).
Immunostaining. For immunofluorescence analysis, 3×10^4 cells were grown on 24-well glass bottom plates coated with 3 μg/ml of vitronectin and 1 μg/ml of Laminin 521. […]

Regarding `N#CC(=Cc1cn(-c2ccccc2)c2ccccc12)C(=O)O` [UK5099, α-cyano-β-(1-phenylindol-3-yl)-acrylate], the “Role of component in hTSC derivation from term CTB” value in experiment [1] is “necessary”. Besides, in experiment [2], the “Role of component in CDX2 expression” value is “important for CDX2 expression”.
As to lysophosphatidic acid [LPA], the “Role of component in hTSC derivation from term CTB” value in experiment [1] was “cannot replace AlbuMAX”.

For the origin of these results see patent publication US20250136932A1, “COMPOSITIONS AND METHODS FOR CULTURING AND MAINTAINING TROPHOBLAST STEM CELLS” (NORTH CAROLINA STATE UNIVERSITY, priority 2022, published 2025).
